Legend:
[1] = tested on: OVA-specific CD8 and CD4 T cells in MC38-cOVA tumor; test: OVA-specific T cell response in MC38-cOVA tumor-bearing mice (CFSE, tetramer flow cytometry); type: in vivo
Method: FIG. 11 depicts the effect of 5-HTR antagonists on the antigen-specific CTL response MC38 tumor model in mice: (A) Representative experimental plan of the adoptive transfer experiment where NRG mice. In brief, NRG mice were inoculated with MC38 on one flank and B16F10 cells on the other. These mice received total lymph node cells from naïve C57BL/6J mice or MC38 tumor-bearing control or RS-127445 treated mice. (B) Tumor volume data from the above-described experiment was measured and plotted (C) Immunocytochemistry data showing expression of H2-Kb-[…]^+ (red) on MC38 cells transfected with pCL-neo-OVA plasmid on the right side and MC38 cells without transfection. DAPI is used as a counterstain. (D-E) C7BL/6J mice were inoculated with an MC38-ova cell line and treated with RS-127445 or left untreated. After 10 days of such treatment, Total lymph node cells were harvested tagged with CFSE, and cultured in the presence of ovalbumin protein (50 μg/ml) for 5 days. After 5 days cells were checked for CFSE expression by flow cytometry to check proliferation. Here is the data (D) showing the CFSE in CD8^+ cells. The statistical data of the total percentage of CFSE^− CD8 T cells corresponding with the percentage of proliferated CD8 T cells were plotted. (F-G) Flow cytometric data and statistical analysis of the percentage of intra-tumoral H-2Kb^− […] tetramer^+ CD8 population from the control and RS-127445 treated MC38-ova tumor-bearing mice. (H-I) Flow cytometric data and statistical analysis of the percentage of intra-tumoral H-2Kb^− […] tetramer^+CD69^+ activated CD8 population from the control and RS-127445 treated MC38 tumor-bearing mice. (J-K) Flow cytometric data and statistical analysis of the percentage of intra-tumoral H-2K^b-[…] tetramer^+IFN-γ^+Granzyme B^+CD8 T cell population from the control and RS-127445 treated MC38 tumor-bearing mice. (D-E) Histogram overlay and statistical data comparison showing relative MFI of granzyme B on IFN-γ^+ OT-I-tetramer^+ CD8a^+ T cells from MC38-ova tumor of control and RS-127445 treated mice. The data shown are representative of one of the two independent experiments. All the statistical analysis was performed using either Student's t-test or two-way ANOVA using Sidak's multiple comparison test. *P<0.05; **P<0.01; […]; ****P<0.0001 Error bar represents mean±standard error of means (SEM).
FIG. 12 depicts that 5-HTR2B signalling affects the antigen-specific proliferation of CD4 T cells: (A-B) Total CD4 T cells were harvested from the lymph node of OT-II mice and they were tagged with CFSE and cultured in vitro in the presence or absence of OT-II peptide (Ova323-339), IL-2, 5-HTR2B agonist BW-723C86 (10 μM), Serotonin (20 μM) or 5-HTR2B antagonist RS-127445 (15 μM) for 5 days. After 5 days the proliferation of OT-II tetramer^+ CD4 T cells was measured and plotted as histogram overlay (A) or as statistical data (B). (C-D) Flow cytometric data and statistical analysis of the percentage of intra-tumoral OT-II-tetramer^+ IFNγ^+ CD4 T cell population from the control and RS-127445 treated MC38-ova tumor-bearing mice. (E-F) Flow cytometric data and statistical analysis of the percentage of intra-tumoral OT-II-tetramer^+ IFNγ^+ CD4 T cell population from the control and RS-127445 treated MC38-ova tumor-bearing mice. (G) Histogram overlay and statistical data comparison showing relative MFI of IL-10 on OT-II-tetramer^+ CD4^+ T cells from MC38-ova tumor of control and RS-127445 treated mice. All the statistical analysis was performed using either Student's ‘t’ test or two-way ANOVA using Sidak's multiple comparison test. *P<0.05; **P<0.01; […]; ****P<0.0001 Error bar represents mean±standard error of means (SEM).
A simple adoptive transfer experiment was performed to study the enhancement of CTL response in general or antigen-specific. […]

B16F10 melanoma tumor = test: Adoptive transfer of lymph node cells into NRG mice bearing MC38 and B16F10 tumors: B16F10 flank; type: in vivo; settings: same recipient mice, other flank (FIG. 11B)
Method: FIG. 11 depicts the effect of 5-HTR antagonists on the antigen-specific CTL response MC38 tumor model in mice: (A) Representative experimental plan of the adoptive transfer experiment where NRG mice. In brief, NRG mice were inoculated with MC38 on one flank and B16F10 cells on the other. These mice received total lymph node cells from naïve C57BL/6J mice or MC38 tumor-bearing control or RS-127445 treated mice. (B) Tumor volume data from the above-described experiment was measured and plotted (C) Immunocytochemistry data showing expression of H2-Kb-[…]^+ (red) on MC38 cells transfected with pCL-neo-OVA plasmid on the right side and MC38 cells without transfection. DAPI is used as a counterstain. (D-E) C7BL/6J mice were inoculated with an MC38-ova cell line and treated with RS-127445 or left untreated. After 10 days of such treatment, Total lymph node cells were harvested tagged with CFSE, and cultured in the presence of ovalbumin protein (50 μg/ml) for 5 days. After 5 days cells were checked for CFSE expression by flow cytometry to check proliferation. Here is the data (D) showing the CFSE in CD8^+ cells. The statistical data of the total percentage of CFSE^− CD8 T cells corresponding with the percentage of proliferated CD8 T cells were plotted. […]

CC(C)c1cc(-c2ccc(F)c3ccccc23)nc(N)n1 [RS-127445]
Ova-specific IFNγ+ CD4 T cells in the tumor ([1]; MC38-cOVA tumor, OT-II tetramer (FIG. 12C-D)): increased | Ova-specific IL-10+ CD4 T cells in the tumor ([1]; MC38-cOVA tumor, OT-II tetramer (FIG. 12E-G)): reduced | CD69+ activated OVA-specific CTLs percentage in the tumor ([1]; OT-I tetramer (FIG. 11H-I)): enhanced | IFNγ+ granzyme B+ effector OVA-specific CTLs percentage in the tumor ([1]; OT-I tetramer (FIG. 11J-M)): enhanced | overall percentage of OVA-specific CD8 T cell in the tumor ([1]; OT-I tetramer, MC38-ova tumor (FIG. 11F-G)): did not enhance the overall percentage | proliferation of CD8 T cells in the presence of OVA in vitro ([1]; cells from treated MC38-cOVA tumor-bearing mice, ovalbumin 50 μg/ml, 5 days, CFSE (FIG. 11D-E)): proliferated at a better rate | B16F10 tumor growth after transfer of antagonist primed total immune cells (B16F10 melanoma tumor): failed to control B16F10 tumor growth
